Data as given in patent US20130303509A1, “NAMPT INHIBITORS” (AbbVie Inc., priority 2012, published 2013).

The molecules below were run on PC3 cells (assay: NAMPT Cell Proliferation Assay). Settings: Homo sapiens, PC-3, 120 h, 5 days incubation, cell viability by Cell Titer Glo.
Assay type: cell-based
Procedure, shortened: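 Five-day CellTiter-Glo viability readout in PC3 cells grown in RPMI/10% heat-inactivated FBS. Compounds added after overnight attachment as a 10-fold dilution series, […]. Percent inhibition fitted to sigmoidal dose-response to derive IC50.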

**Q.** Which IC50 does the source give for O=C(Nc1ccc(O[C@@H]2CCN(C(=O)c3cccs3)C2)cc1)C1CN(c2ccnnc2)C1 [Example 469, 1-(pyridazin-4-yl)-N-(4-{[(3R)-1-(thiophen-2-ylcarbonyl)pyrrolidin-3-yl]oxy}phenyl)azetidine-3-carboxamide] here?
**A.** Its IC50 is 8.61 nM.

**Q.** With O=C(Nc1ccc(O[C@@H]2CCN(C(=O)Cc3cccc(C(F)(F)F)c3)C2)cc1)C1CN(c2ccnnc2)C1 [Example 470, 1-(pyridazin-4-yl)-N-(4-{[(3R)-1-{[3-(trifluoromethyl)phenyl]acetyl}pyrrolidin-3-yl]oxy}phenyl)azetidine-3-carboxamide] as the molecule, how does the IC50 read?
**A.** Its IC50 is 715 nM.

**Q.** For CC(C)C(=O)N1CC[C@@H](Oc2ccc(NC(=O)C3CN(c4ccnnc4)C3)cc2)C1 [Example 471, N-(4-{[(3R)-1-(2-methylpropanoyl)pyrrolidin-3-yl]oxy}phenyl)-1-(pyridazin-4-yl)azetidine-3-carboxamide], which IC50 is on record?
**A.** The IC50 was 72 nM.

**Q.** For O=C(Nc1ccc(O[C@@H]2CCN(C(=O)c3ccccc3F)C2)cc1)C1CN(c2ccnnc2)C1 [Example 472, N-(4-{[(3R)-1-(2-fluorobenzoyl)pyrrolidin-3-yl]oxy}phenyl)-1-(pyridazin-4-yl)azetidine-3-carboxamide], which IC50 is on record?
**A.** The IC50 was 6.56 nM.

**Q.** CCC(C)(C)C(=O)N1CC[C@@H](Oc2ccc(NC(=O)C3CN(c4ccnnc4)C3)cc2)C1 [Example 473, N-(4-{[(3R)-1-(2,2-dimethylbutanoyl)pyrrolidin-3-yl]oxy}phenyl)-1-(pyridazin-4-yl)azetidine-3-carboxamide] was tested. Which IC50 did it give?
**A.** The IC50 was 9.3 nM.

**Q.** O=C(Nc1ccc(O[C@@H]2CCN(C(=O)c3cc(F)cc(F)c3)C2)cc1)C1CN(c2ccnnc2)C1 [Example 474, N-(4-{[(3R)-1-(3,5-difluorobenzoyl)pyrrolidin-3-yl]oxy}phenyl)-1-(pyridazin-4-yl)azetidine-3-carboxamide] was tested. Which IC50 did it give?
**A.** Its IC50 is 68.5 nM.

**Q.** Which IC50 does the source give for O=C(Nc1ccc(O[C@@H]2CCN(C(=O)c3ccc(C(F)(F)F)cc3)C2)cc1)C1CN(c2ccnnc2)C1 [Example 475, 1-(pyridazin-4-yl)-N-[4-({(3R)-1-[4-(trifluoromethyl)benzoyl]pyrrolidin-3-yl}oxy)phenyl]azetidine-3-carboxamide] here?
**A.** Its IC50 is 594 nM.

**Q.** O=C(Nc1ccc(O[C@@H]2CCN(C(=O)c3cccc(F)c3)C2)cc1)C1CN(c2ccnnc2)C1 [Example 476, N-(4-{[(3R)-1-(3-fluorobenzoyl)pyrrolidin-3-yl]oxy}phenyl)-1-(pyridazin-4-yl)azetidine-3-carboxamide] was tested. Which IC50 did it give?
**A.** Its IC50 is 17.4 nM.

**Q.** How did the IC50 turn out when O=C(Nc1ccc(O[C@@H]2CCN(C(=O)c3ccc(OC(F)(F)F)cc3)C2)cc1)C1CN(c2ccnnc2)C1 [Example 477, 1-(pyridazin-4-yl)-N-[4-({(3R)-1-[4-(trifluoromethoxy)benzoyl]pyrrolidin-3-yl}oxy)phenyl]azetidine-3-carboxamide] was run?
**A.** Its IC50 is 235 nM.

**Q.** How did the IC50 turn out when CC(C)CC(=O)N1CC[C@@H](Oc2ccc(NC(=O)C3CN(c4ccnnc4)C3)cc2)C1 [Example 478, N-(4-{[(3R)-1-(3-methylbutanoyl)pyrrolidin-3-yl]oxy}phenyl)-1-(pyridazin-4-yl)azetidine-3-carboxamide] was run?
**A.** The IC50 was 14.3 nM.

**Q.** Which IC50 does the source give for O=C(Nc1ccc(O[C@@H]2CCN(C(=O)CC(F)(F)F)C2)cc1)C1CN(c2ccnnc2)C1 [Example 479, 1-(pyridazin-4-yl)-N-(4-{[(3R)-1-(3,3,3-trifluoropropanoyl)pyrrolidin-3-yl]oxy}phenyl)azetidine-3-carboxamide] here?
**A.** The IC50 was 68.9 nM.

**Q.** With O=C(Nc1ccc(O[C@@H]2CCN(C(=O)C(F)(F)c3ccccc3)C2)cc1)C1CN(c2ccnnc2)C1 [Example 480, N-[4-({(3R)-1-[difluoro(phenyl)acetyl]pyrrolidin-3-yl}oxy)phenyl]-1-(pyridazin-4-yl)azetidine-3-carboxamide] as the molecule, how does the IC50 read?
**A.** Its IC50 is 4.24 nM.

**Q.** For CC(C)(C)C(=O)N1CC[C@@H](Oc2ccc(NC(=O)C3CN(c4ccnnc4)C3)cc2)C1 [Example 481, N-(4-{[(3R)-1-(2,2-dimethylpropanoyl)pyrrolidin-3-yl]oxy}phenyl)-1-(pyridazin-4-yl)azetidine-3-carboxamide], which IC50 is on record?
**A.** The IC50 was 12.1 nM.

**Q.** O=C(Nc1ccc(O[C@@H]2CCN(C(=O)C3CCC(F)(F)CC3)C2)cc1)C1CN(c2ccnnc2)C1 [Example 482, N-[4-({(3R)-1-[(4,4-difluorocyclohexyl)carbonyl]pyrrolidin-3-yl}oxy)phenyl]-1-(pyridazin-4-yl)azetidine-3-carboxamide] was tested. Which IC50 did it give?
**A.** Its IC50 is 32.6 nM.

**Q.** With O=C(Nc1ccc(O[C@@H]2CCN(C(=O)c3ccccc3Cl)C2)cc1)C1CN(c2cccnn2)C1 [Example 483, N-(4-{[(3R)-1-(2-chlorobenzoyl)pyrrolidin-3-yl]oxy}phenyl)-1-(pyridazin-3-yl)azetidine-3-carboxamide] as the molecule, how does the IC50 read?
**A.** The IC50 was 2.14 nM.

**Q.** Which IC50 does the source give for O=C(Nc1ccc(O[C@@H]2CCN(C(=O)c3nccs3)C2)cc1)C1CN(c2cccnn2)C1 [Example 484, 1-(pyridazin-3-yl)-N-(4-{[(3R)-1-(1,3-thiazol-2-ylcarbonyl)pyrrolidin-3-yl]oxy}phenyl)azetidine-3-carboxamide] here?
**A.** Its IC50 is 0.56 nM.

**Q.** O=C(Nc1ccc(O[C@@H]2CCN(C(=O)CC3CC3)C2)cc1)C1CN(c2cccnn2)C1 [Example 485, N-(4-{[(3R)-1-(cyclopropylacetyl)pyrrolidin-3-yl]oxy}phenyl)-1-(pyridazin-3-yl)azetidine-3-carboxamide] was tested. Which IC50 did it give?
**A.** The IC50 was 6.35 nM.

**Q.** Which IC50 does the source give for CC[C@H](C)C(=O)N1CC[C@@H](Oc2ccc(NC(=O)C3CN(c4cccnn4)C3)cc2)C1 [Example 486, N-[4-({(3R)-1-[(2S)-2-methylbutanoyl]pyrrolidin-3-yl}oxy)phenyl]-1-(pyridazin-3-yl)azetidine-3-carboxamide] here?
**A.** The IC50 was 6.24 nM.

**Q.** For O=C(Nc1ccc(O[C@@H]2CCN(C(=O)C3CCOCC3)C2)cc1)C1CN(c2cccnn2)C1 [Example 487, 1-(pyridazin-3-yl)-N-(4-{[(3R)-1-(tetrahydro-2H-pyran-4-ylcarbonyl)pyrrolidin-3-yl]oxy}phenyl)azetidine-3-carboxamide], which IC50 is on record?
**A.** The IC50 was 72 nM.

**Q.** O=C(Nc1ccc(O[C@@H]2CCN(C(=O)Cc3ccc(OC(F)(F)F)cc3)C2)cc1)C1CN(c2cccnn2)C1 [Example 488, 1-(pyridazin-3-yl)-N-(4-{[(3R)-1-{[4-(trifluoromethoxy)phenyl]acetyl}pyrrolidin-3-yl]oxy}phenyl)azetidine-3-carboxamide] was tested. Which IC50 did it give?
**A.** Its IC50 is 64.2 nM.

**Q.** For O=C(Nc1ccc(O[C@@H]2CCN(C(=O)c3ccc(F)cc3)C2)cc1)C1CN(c2cccnn2)C1 [Example 489, N-(4-{[(3R)-1-(4-fluorobenzoyl)pyrrolidin-3-yl]oxy}phenyl)-1-(pyridazin-3-yl)azetidine-3-carboxamide], which IC50 is on record?
**A.** Its IC50 is 2.07 nM.

**Q.** How did the IC50 turn out when O=C(Nc1ccc(O[C@@H]2CCN(C(=O)c3ccsc3)C2)cc1)C1CN(c2cccnn2)C1 [Example 490, 1-(pyridazin-3-yl)-N-(4-{[(3R)-1-(thiophen-3-ylcarbonyl)pyrrolidin-3-yl]oxy}phenyl)azetidine-3-carboxamide] was run?
**A.** Its IC50 is 0.68 nM.

**Q.** With O=C(Nc1ccc(O[C@@H]2CCN(C(=O)Cc3ccc(F)cc3)C2)cc1)C1CN(c2cccnn2)C1 [Example 491, N-[4-({(3R)-1-[(4-fluorophenyl)acetyl]pyrrolidin-3-yl}oxy)phenyl]-1-(pyridazin-3-yl)azetidine-3-carboxamide] as the molecule, how does the IC50 read?
**A.** The IC50 was 8.45 nM.

**Q.** Which IC50 does the source give for O=C(Nc1ccc(O[C@@H]2CCN(C(=O)Cc3cc(F)cc(F)c3)C2)cc1)C1CN(c2cccnn2)C1 [Example 492, N-[4-({(3R)-1-[(3,5-difluorophenyl)acetyl]pyrrolidin-3-yl}oxy)phenyl]-1-(pyridazin-3-yl)azetidine-3-carboxamide] here?
**A.** Its IC50 is 3.73 nM.

**Q.** How did the IC50 turn out when O=C(Nc1ccc(O[C@@H]2CCN(C(=O)c3ccc(F)c(F)c3)C2)cc1)C1CN(c2cccnn2)C1 [Example 493, N-(4-{[(3R)-1-(3,4-difluorobenzoyl)pyrrolidin-3-yl]oxy}phenyl)-1-(pyridazin-3-yl)azetidine-3-carboxamide] was run?
**A.** The IC50 was 6.73 nM.

**Q.** With O=C(Nc1ccc(O[C@@H]2CCN(C(=O)Cc3cccc(F)c3)C2)cc1)C1CN(c2cccnn2)C1 [Example 494, N-[4-({(3R)-1-[(3-fluorophenyl)acetyl]pyrrolidin-3-yl}oxy)phenyl]-1-(pyridazin-3-yl)azetidine-3-carboxamide] as the molecule, how does the IC50 read?
**A.** The IC50 was 1.05 nM.

**Q.** O=C(Nc1ccc(O[C@@H]2CCN(C(=O)c3cccc(C(F)(F)F)c3)C2)cc1)C1CN(c2cccnn2)C1 [Example 495, 1-(pyridazin-3-yl)-N-[4-({(3R)-1-[3-(trifluoromethyl)benzoyl]pyrrolidin-3-yl}oxy)phenyl]azetidine-3-carboxamide] was tested. Which IC50 did it give?
**A.** The IC50 was 7.06 nM.

**Q.** With O=C(Nc1ccc(O[C@@H]2CCN(C(=O)Cc3ccc(F)cc3F)C2)cc1)C1CN(c2cccnn2)C1 [Example 496, N-[4-({(3R)-1-[(2,4-difluorophenyl)acetyl]pyrrolidin-3-yl}oxy)phenyl]-1-(pyridazin-3-yl)azetidine-3-carboxamide] as the molecule, how does the IC50 read?
**A.** Its IC50 is 6.3 nM.

**Q.** Which IC50 does the source give for O=C(Nc1ccc(O[C@@H]2CCN(C(=O)Cc3ccc(C(F)(F)F)cc3)C2)cc1)C1CN(c2cccnn2)C1 [Example 497, 1-(pyridazin-3-yl)-N-(4-{[(3R)-1-{[4-(trifluoromethyl)phenyl]acetyl}pyrrolidin-3-yl]oxy}phenyl)azetidine-3-carboxamide] here?
**A.** The IC50 was 23.4 nM.

**Q.** With O=C(Nc1ccc(O[C@@H]2CCN(C(=O)c3cscn3)C2)cc1)C1CN(c2cccnn2)C1 [Example 498, 1-(pyridazin-3-yl)-N-(4-{[(3R)-1-(1,3-thiazol-4-ylcarbonyl)pyrrolidin-3-yl]oxy}phenyl)azetidine-3-carboxamide] as the molecule, how does the IC50 read?
**A.** Its IC50 is 6.64 nM.

**Q.** O=C(Nc1ccc(O[C@@H]2CCN(C(=O)C3CCCO3)C2)cc1)C1CN(c2cccnn2)C1 (stereo partly drawn) [Example 499, 1-(pyridazin-3-yl)-N-(4-{[(3R)-1-(tetrahydrofuran-2-ylcarbonyl)pyrrolidin-3-yl]oxy}phenyl)azetidine-3-carboxamide] was tested. Which IC50 did it give?
**A.** Its IC50 is 12.1 nM.

**Q.** Cc1ccc(C(=O)N2CC[C@@H](Oc3ccc(NC(=O)C4CN(c5cccnn5)C4)cc3)C2)s1 [Example 500, N-[4-({(3R)-1-[(5-methylthiophen-2-yl)carbonyl]pyrrolidin-3-yl}oxy)phenyl]-1-(pyridazin-3-yl)azetidine-3-carboxamide] was tested. Which IC50 did it give?
**A.** Its IC50 is 1.02 nM.
